Data as given in PMC6270838, “Design and Synthesis of C-Terminal Modified Cyclic Peptides as VEGFR1 Antagonists” (Molecules, 2014).
Bridge positions count the residues as written; N and C are the ends. Peptide text beside a SMILES is read from it. * marks the point of attachment. X1 = COc1ccc2c(CN*)cc(=O)oc2c1

Legend:
[1] = target: recombinant human VEGFR1 extracellular domains (ECD) (Homo sapiens, UniProt P17948); settings: average of at least 3 tests each in triplicate
Procedure: Peptides VEGFR1 binding ability was determined by a competition ELISA test. Briefly, recombinant human VEGFR1 extracellular domains (ECD) were adsorbed on the surface of a 96-well microplate. After washing and BSA blocking, the plate was incubated with different compounds at 100 µM in competition with biotinylated VEGF (btVEGF). After additional washing steps, the remaining btVEGF was detected by chemiluminescence, via an HRP-conjugated streptavidin.
The 96-well plates were coated with humanized extracellular domains (ECD) of VEGFR-1 (R&D Systems, Abingdon, UK) in PBS (20 ng/well) overnight at 4 °C. On the following day, the plates were washed with 250 µL wash buffer (PBS containing 0.1% (v/v) Tween 20) three times and treated with blocking buffer (PBS containing 3% (w/v) BSA) at 37 °C for 2 h, followed by three washes with wash buffer. 50 µL of peptides solution at twice the desired final concentration (in PBS containing 2% DMSO) were added in triplicate wells and the plate was kept at 37 °C for 1 h. A solution of btVEGF-A165 (R & D Systems, Abingdon, UK) at twice the desired final concentration (typically 100 pM) in 50 µL PBS was added. After 2 h incubation, the plates were washed four times with wash buffer. 100 µL of Streptavidin‑Horseradish Peroxidase (Amersham, Pittsburgh, PA, USA) diluted 1:8000 w in PBS containing 0.1% (v/v) Tween 20 and 0.3% (w/v) BSA) were then added to each well to detect the btVEGF‑A165 bound to the ECD of VEGFR1. After 45 min incubation at 37 °C and in the dark, the plate was washed five times with wash buffer. A volume of 100 µL of SuperSignal West Pico Chemioluminescent Substrate (Pierce, Rockford, IL, USA) was added and the chemiluminescence was quantified with a Perkin Elmer Victor 2 spectrophotometer (Victor Wallac Multilabel reader). The percentages of displacement were calculated by the following formula: 100 × [1 − (S − NS)/(MS − NS)] where S is the signal measured, NS is the nonspecific binding signal defined as the signal measured in the absence of coated receptor on the microplate, and MS is the maximum binding signal obtained with (bt)-VEGF-A165 without competitor.

[2] = water solubility (qualitative); type: physicochemical; settings: qualitative comparison between peptides
D2 domain of VEGFR1 = settings: shares with VEGF a common binding site on D2 (His223, Arg224); cited from earlier work
From the text: In the laboratory, a series of cyclic octapeptides has been developed.

Chain of recombinant human VEGFR1 extracellular domains (ECD) (P17948 27-758 limits assumed): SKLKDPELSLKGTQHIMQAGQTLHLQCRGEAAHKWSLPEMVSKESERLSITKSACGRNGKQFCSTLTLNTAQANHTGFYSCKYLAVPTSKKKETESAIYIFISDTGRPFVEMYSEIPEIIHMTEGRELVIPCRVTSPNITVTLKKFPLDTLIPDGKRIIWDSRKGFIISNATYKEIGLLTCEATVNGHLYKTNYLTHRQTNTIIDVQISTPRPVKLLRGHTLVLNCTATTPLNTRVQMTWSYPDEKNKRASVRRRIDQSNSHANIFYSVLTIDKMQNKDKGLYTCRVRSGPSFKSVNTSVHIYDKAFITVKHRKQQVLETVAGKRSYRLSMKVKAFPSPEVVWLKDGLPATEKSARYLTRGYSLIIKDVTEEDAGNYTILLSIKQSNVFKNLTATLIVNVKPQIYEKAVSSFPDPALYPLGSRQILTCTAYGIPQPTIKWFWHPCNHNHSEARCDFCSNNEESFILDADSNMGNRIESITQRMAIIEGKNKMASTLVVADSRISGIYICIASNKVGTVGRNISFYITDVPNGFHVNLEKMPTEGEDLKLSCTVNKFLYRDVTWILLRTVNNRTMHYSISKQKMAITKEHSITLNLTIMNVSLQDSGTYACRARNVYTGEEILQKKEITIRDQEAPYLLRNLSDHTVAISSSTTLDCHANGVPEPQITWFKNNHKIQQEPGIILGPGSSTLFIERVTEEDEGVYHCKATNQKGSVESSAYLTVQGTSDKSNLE

Molecule | Displacement (%) 30 µM ([1]; dose dependence, peptide 30 µM, NA means no activity) | Displacement (%) 50 µM ([1]; dose dependence, peptide 50 µM) | Displacement (%) 100 µM ([1]; dose dependence, peptide 100 µM) | Displacement 100 µM (%) ([1]; percentage of btVEGF displaced by peptide at 100 µM, btVEGF-A165 typically 100 pM, chemiluminescence, same btVEGF batch) | water solubility [2] | interaction with the D2 domain of VEGFR1 by NMR (D2 domain of VEGFR1)
COc1ccc2c(CNC(=O)[C@@H]3CCC(=O)N[C@@H](Cc4ccc(O)cc4)C(=O)N[C@@H](CCCCN)C(=O)N[C@@H](CC(=O)O)C(=O)N[C@@H](CCC(=O)O)C(=O)NCC(=O)N[C@@H](CC(C)C)C(=O)N[C@@H](CCC(=O)O)C(=O)N3)cc(=O)oc2c1 [Peptide 19] (YKDEGLEE-X1; lactam N-8) | 11% | 41% | 68% | 68% | slightly less water soluble than 15 and 16 | 
c[YYDEGLEE]-NH2 (sidechain bridge or staple) [Peptide 1] |  |  |  |  |  | interacts
